Reference: patent publication US20060148776A1, “Drug formulations having long and medium chain triglycerides” (Conforma Therapeutics Corporation, priority 2003, published 2006)

Columns and labels:
[1] = Characterisation and storage stability of 17-AAG emulsion (droplet size, drug load, degradants); format: physicochemical
Description: EDTA (disodium, dihydrate, USP), sucrose, and water for injection (WFI) are weighed into a 5 L polypropylene beaker and stirred until the solids are dissolved. The aqueous phase is then added to the oil phase and thorough mixing effected using a high-speed emulsifier equipped with an emulsion head at 5000 RPM until the oil adhering to the surface is “stripped off.” Shearing rate is then increased to 10000 RPM for 2-5 minutes to obtain a uniform primary emulsion. Laser light scattering (LLS) may be used to measure the average droplet size, and the solution may further be checked, e.g., under an optical microscope to determine the relative presence or absence of crystals and solids.
The emulsion pH is adjusted to 6.0±0.2 with 0.2N NaOH. The primary emulsion is then passed through a Model 11OS microfluidizer (Microfluidics Inc., Newton, Mass., USA) operating at static pressure of about 110 psi (operating pressure of 60-95 psi) with a 75-micron emulsion interaction chamber (F20Y) for 6-8 passages until the average droplet size is ≦190 nm. LLS may be used following the individual passages to evaluate progress. The solution may further be checked for the presence of crystals using polarized light under an optical microscope.

[2] = daily 1-hour infusion for 5 days every three weeks; cited from earlier work

## C=CCNC1=C2CC(C)CC(OC)C(O)C(C)/C=C(\C)C(OC(N)=O)C(OC)/C=C\C=C(/C)C(=O)NC(=CC1=O)C2=O (stereo not shown) [Compound 17-AAG, 17-allylaminogeldanamycin]
[1]; oil phase alone
  concentration achieved in the oil phase alone: 20000 to 30000 µg/mL
[1]; stored at 40° C.
  time until degradants of 17-AAG are seen: approximately 2 weeks
[1]; whole emulsion
  concentration achieved overall: ≤ 3000 µg/mL
[2]
  maximum tolerated dose (MTD): 40 mg/m^2
